# Data published in patent US7084144B2, “Sulfonyl group containing compounds and their use for the treatment of erectile dysfunction” (The Jordanian Pharmaceutical MFG & Medical Equipment CO LTD, priority 2000, dated 2006).
# Entries after “also recorded” stand apart in the source; their conditions may differ.
# Experiments:
# [1] = tested on: cGMP accumulation in isolated rabbit corpus carvenosum tissue; experiment: cGMP accumulation in isolated rabbit corpus carvenosum tissue (ELISA), with and without NO donor SNP; type: cell-based, White New Zealand rabbits; conditions: FIG. 1; for effect on the levels of cGMP: absence of NO donor, tested concentrations up to 100,000 nM
# Experimental: (§1) Method for Analysis of cGMP & cAMP Synthesis and Accumulation in Penile Tissues: White New Zealand rabbits were sacrificed. Excise the penises rapidly after killing the animals, remove epidermal & connective tissue. Dissect out and discard the urethra carefully. Cut the penises longitudinally into 2 equal strips and then laterally to give about 20–40 segments. Pool and incubate the segments of the corpus cavernosum in Dulbecco's minimum essential Medium (MEM) at room temperature for one hour to allow the tissues to recover from preparative handling. Effect of Drug on cGMP and cAMP Formation:
# (§2) Place one penile segment in triplicate for each drug dose in 200 μl MEM. Place one penile segment in triplicate for each drug dose with 10 μM SNP (sodium nitroprusside) in 200 μl MEM. (in the case of cGMP). Incubate the tubes at 37° C. for 30 min, stop the reaction by adding 200 μl of 1 mol/l perchloric acid and sonicate for 5 min. Neutralize the aliquots with 0.5 mol/l K3PO4.3H2O to pH 6.2 (240 μl), centrifuge and take the supernatant in aliquots. Keep at 4° C. and assay for the concentrations of cAMP and cGMP in the extract using ELISA (enzyme linked immunosorbant assay). Preparation of Zero sample: Add 200 ul MEM, 200 ul 1M perchloric acid and 240 μl 0.5 mol/L K3PO4.3H2O in one tube.
# (§3) The main concentrations were in the range 0–20,000 or 100,000 nM. A stock solution of 1 mM for both drugs were prepared in distilled water. Serial dilution were prepared in MEM giving working drug concentrations of 0, 1000, 4000, 8000, 10000, 20000 and 100000 nM. In the case of cGMP the tests were carried out with and without NO donor (SNP). For this purpose 10 μM SNP was included when necessary.
# [2] = tested on: cAMP accumulation in isolated rabbit corpus carvenosum tissue; experiment: cAMP accumulation in isolated rabbit corpus carvenosum tissue (ELISA); type: cell-based, White New Zealand rabbits; conditions: absence of NO donor, FIG. 2; for effect on the accumulation of cAMP levels: up to 20,000 nM
# Experimental: as §1, §2, §3
# male rats = experiment: Penile erection (responding rats, PEI, ED50) in male rats after oral administration; type: in vivo, rat; conditions: for PEI (penile erection indexes) for selected molecules: Tables 4-6, dose not given; for PEI (penile erection index) / responding rats % / Calculated ED50: male rats, oral; for PEI (penile erection index) / responding rats %: 10 rats used, 2 hours observation; for Calculated ED50: responding rats as a function of dose
# Experimental: The purpose of the study was to compare the biological activity of compound 1 of the present invention with that of sildenafil. In particular, the respective ED50 value (ED=effective dose), erection episodes and penile erection indexes of said compounds in the treatment of male rats were determined. The penile erection index is an established means of determining the erection promoting properties of a substance (see e.g. Benassi-Benelli, F., Ferari, F., and Pellegrini Quaratotti, B., Arch. Int. Pharmacodyn., 242, 241–247, (1979), and Ang. H. H., Sim, M. K., Pharm. Sci., 3, 17–119, (1997) and references cited therein).
# In these experiments, compound 1 of the present invention and sildenafil were administered to male rats orally. The doses for sildenafil were 0.0781, 0.1562, 0.3125 and 0.625 mg/kg body weight, while doses for compound 1 of the present invention were 0.3, 0.6, 1, and 2 mg/kg body weight. Both sildenafil and compound 1 of the present invention were dissolved in distilled water. Control animals were administered with water. During the experiments, the rats were placed in glass cages for observation and had free access to food and water. During 2 hours after administration of the investigated compound, the penile erection and self-sucking were monitored.
smiles,measurement,setting,value
CN1CCN(S(=O)(=O)c2ccc3c(c2)OCO3)CC1 [Compound 1],concentration giving maximum increase of cGMP levels,[1]; NO donor added (10 μM SNP),about 4000 nM
same,effect on cGMP accumulation compared with sildenafil,"[1]; NO donor added (10 μM SNP), at 10,000 nM",better effect than sildenafil
same,effect on the levels of cGMP,[1],very little effect; also recorded: weak effect
same,effect on the accumulation of cAMP levels,[2],no effect at all
same,melting point,,137 to 138 °C
same,PEI (penile erection indexes) for selected molecules,male rats,1015
same,PEI (penile erection index),male rats; dose 0.3 mg/kg,22.5
same,responding rats %,male rats; dose 0.3 mg/kg,15%
same,PEI (penile erection index),male rats; dose 0.6 mg/kg,260
same,responding rats %,male rats; dose 0.6 mg/kg,40%
same,PEI (penile erection index),male rats; dose 1.0 mg/kg,665
same,responding rats %,male rats; dose 1.0 mg/kg,70%
same,PEI (penile erection index),male rats; dose 2.0 mg/kg,1020
same,responding rats %,male rats; dose 2.0 mg/kg,85%
same,Calculated ED50,male rats,^(3)Calculated ED50 = 0.7822 mg/kg body weight
Cc1ccc(S(=O)(=O)N2CCN(C)CC2)cc1 [R0=—CH3; R1=—CH3 (Table 4)],PEI (penile erection indexes) for selected molecules,male rats,240
Cc1ccc(S(=O)(=O)NN2CCN(C)CC2)cc1 [R0=—CH3; R1=—CH3; n=0 (Table 6)],PEI (penile erection indexes) for selected molecules,male rats,90
CN1CCN(S(=O)(=O)c2ccccc2)CC1 [R0=—CH3; R1=—H (Table 4)],PEI (penile erection indexes) for selected molecules,male rats,420
CN1CCN(NS(=O)(=O)c2ccccc2)CC1 [R0=—CH3; R1=—H; n=0 (Table 6)],PEI (penile erection indexes) for selected molecules,male rats,80
"CCCc1nn(C)c2c(=O)[nH]c(-c3cc(S(=O)(=O)N4CCN(C)CC4)ccc3OCC)nc12 [Sildenafil, sildenafil, reference compound]",concentration giving maximum increase of cGMP levels,[1]; NO donor added (10 μM SNP),"about 10,000 nM"
same,effect on the levels of cGMP,[1],very little effect; also recorded: almost flat effect
same,concentration giving maximum increase in cAMP levels,[2],"8000–10,000 nM"
same,effect on the accumulation of cAMP levels,[2],remarkable increase
same,PEI (penile erection index),male rats; dose 0.0781 mg/kg,90
same,responding rats %,male rats; dose 0.0781 mg/kg,30%
same,PEI (penile erection index),male rats; dose 0.1562 mg/kg,150
same,responding rats %,male rats; dose 0.1562 mg/kg,30%
same,PEI (penile erection index),male rats; dose 0.3125 mg/kg,350
same,responding rats %,male rats; dose 0.3125 mg/kg,50%
same,PEI (penile erection index),male rats; dose 0.625 mg/kg,980
same,responding rats %,male rats; dose 0.625 mg/kg,70%
same,Calculated ED50,male rats,^(2)Calculated ED50 = 0.2473 mg/kg body weight
